# Measurements: PubChem BioAssay (NCI)
# “And” between values parts separate entries of the source, which are not always exact repeats. Identical values can stand only once.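 A five-concentration, 48-hour dose response in 96-well plates underlies each endpoint, interpolated linearly between surrounding concentrations. The concentration for 50% growth inhibition is given as GI50. TGI is the concentration that stops growth completely.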
# Columns and labels:
# Assay in all cases: NCI tumour cell line growth inhibition, 48 h
# [1] = system: NCI-H226 lung
# [2] = system: UACC-62 melanoma
# [3] = system: A498 renal
# [4] = system: 786-0 renal
# [5] = system: MOLT-4 leukemia
# [6] = system: EKVX NSCLC
# [7] = system: RPMI-8226 leukemia
# [8] = system: IGROV1 ovarian
# [9] = system: HCT-116 colon
# [10] = system: SF-295 CNS
Compound,TGI [1],TGI [2],TGI [3],TGI [4],TGI [5],TGI [6],TGI [7],TGI [8],TGI [9],TGI [10],GI50 [1],GI50 [2],GI50 [3],GI50 [4],GI50 [5],GI50 [6],GI50 [7],GI50 [8],GI50 [9],GI50 [10]
CN(C)/C=N/c1nc2c(ncn2C2OC(CO)C(O)C2O)c(=O)[nH]1 (configuration not stated),> 100 µM,> 100 µM,> 100 µM,> 100 µM,> 100 µM,> 100 µM,> 100 µM,> 100 µM,> 100 µM,> 100 µM,–,–,–,–,–,–,–,–,–,–
CC(C)CCN1c2nc(Nc3cc(F)c(O)c(F)c3)ncc2N(C)C(=O)C1C (configuration not stated),41.2 µM,23.8 µM,54.6 µM,52.9 µM,19.9 µM,> 100 µM,11.5 µM,> 61.2 µM,30.1 µM,> 100 µM,17.4 µM,4.75 µM,18.3 µM,7.09 µM,4.1 µM,9.26 µM,2.82 µM,8.83 µM,4.37 µM,11.3 µM
[Cl][Hg][c]1cc(Br)cc(Br)c1,8.84 µM,3.42 µM,8.01 µM,3.2 µM,5.41 µM,4.78 µM,4.86 µM,3.41 µM,13.4 µM,15.7 µM,3.48 µM,1.62 µM,2.64 µM,1.69 µM,1.77 µM,2.21 µM,1.81 µM,1.47 µM,3.41 µM,3.31 µM
O=C(O)CCC(=O)c1ccc[nH]1,> 100 µM,> 100 µM,> 100 µM,> 100 µM,> 100 µM,> 100 µM,> 100 µM,> 100 µM,> 100 µM,> 100 µM,–,–,–,–,–,–,–,–,–,–
C=C1C(=O)O[C@@H]2C[C@@H]1CC/C(C)=C/CC/C(C)=C/CC[C@@]2(C)O,22.2 µM,29.3 µM,41.3 µM,24 µM,18 µM,48.9 µM,5.09 µM,20.2 µM,11.9 µM,32.2 µM,4.54 µM,14 µM,23.4 µM,11.5 µM,3.72 µM,23.5 µM,2.09 µM,0.766 µM,3.06 µM,16.6 µM
CC(C)=CCNc1ncnc2c1ncn2C1OC(CO)C(O)C1O (configuration not stated),7.1 µM,> 1000 µM,1.51 µM,11.4 µM,3.82 µM,> 1000 µM,25.2 µM,19.2 µM,5.77 µM,2.6 µM,2.6 µM,–,0.405 µM,1.37 µM,0.457 µM,7.79 µM,2.91 µM,0.573 µM,0.499 µM,0.671 µM
CCCN=C(N)NC#N,> 100 µM,> 100 µM,> 100 µM,65.1 µM,> 100 µM,> 100 µM,> 100 µM,> 100 µM,> 100 µM,> 100 µM,–,–,–,–,–,–,–,–,–,–
N#CC(=C1C=CC(=NO)C=C1)c1ccccc1,7.47 µM,7.41 µM,22.8 µM,9.91 µM,18.4 µM,21.4 µM,1.83 µM,4.53 µM,0.794 µM,8.16 µM,2.35 µM,1.49 µM,5.33 µM,1.69 µM,3.04 µM,5.31 µM,0.348 µM,1.3 µM,0.272 µM,2.91 µM
CC1=NNC(=O)C2CCC(=O)N12 (configuration not stated),> 100 µM,–,> 100 µM,> 100 µM,> 100 µM,> 100 µM,> 100 µM,> 100 µM,> 100 µM,–,–,–,–,–,–,–,–,–,–,–
CCN(CC)c1ccc2c(c1)OC(N)=C(C#N)C2c1cc(OC)c2c(c1)OCO2 (configuration not stated),0.942 µM,13.5 µM,0.0809 µM,3.16 µM,3.55 µM,> 100 µM,2.51 µM,33.7 µM,1.78 µM,2.68 µM,0.047 µM,< 0.0184 µM,0.0201 µM,0.0438 µM,0.0497 µM,0.0767 µM,0.0474 µM,0.104 µM,0.0324 µM,< 0.0157 µM
Cc1cc(I)cc(CN(C)CCCN2CCCCCCC2)c1O,35 µM,18 µM,32.9 µM,26.3 µM,19.9 µM,37.6 µM,24.2 µM,32 µM,28.3 µM,23 µM,16.3 µM,6 µM,17.2 µM,12.7 µM,3.7 µM,16 µM,7.9 µM,15.4 µM,11.8 µM,7.38 µM
CCN(CC)CCCC(CNc1ccnc2cc(Cl)ccc12)c1ccc(Cl)cc1 (configuration not stated),5.81 µM and 8.83 µM,3.52 µM and 3.5 µM,3.33 µM and 2.8 µM,2.85 µM and 2.97 µM,4.91 µM and 4.22 µM,6.03 µM and 4.11 µM,4.79 µM and 2.69 µM,7.47 µM and 4.55 µM,6.12 µM and 2.36 µM,3.54 µM and 2.76 µM,2.14 µM and 2.55 µM,1.9 µM and 1.86 µM,1.83 µM and 1.35 µM,1.43 µM and 1.57 µM,1.56 µM and 1.24 µM,2.11 µM and 1.67 µM,1.36 µM and 0.59 µM,2.42 µM and 1.6 µM,1.54 µM and 0.925 µM,1.79 µM and 1.35 µM
CC(O)CCC(=O)c1ccoc1 (configuration not stated),> 10000 µM,> 10000 µM,9940 µM,> 10000 µM,> 9430 µM,> 9740 µM,7900 µM,> 10000 µM,> 8750 µM,> 10000 µM,–,–,–,–,–,–,–,–,–,–
COc1ccc(C(=O)C(c2ccc(OC)cc2)C2(O)C(=O)Nc3ccc([N+](=O)[O-])cc32)cc1 (configuration not stated),> 100 µM,> 100 µM,31.5 µM,> 100 µM,> 100 µM,> 100 µM,> 100 µM,> 100 µM,> 100 µM,> 100 µM,–,–,–,–,–,–,–,–,–,–
O=c1[nH]c(=O)n(C2OC(CO)C(O)C2O)cc1NN=NCc1ccccc1 (configuration not stated),> 100 µM,> 100 µM,> 100 µM,> 100 µM,> 100 µM,> 100 µM,> 76.2 µM,> 100 µM,> 80.1 µM,> 100 µM,–,–,–,–,–,–,–,–,–,–
Cn1nc(N)c2cc([C@@H]3Nc4ccc5[nH]ncc5c4[C@H]4C5CCC(C5)[C@@H]34)ccc21 (some centres not stated),23.5 µM,17.7 µM,1.15 µM,18.1 µM,> 51 µM,67 µM,3.69 µM,22.8 µM,13.9 µM,11.7 µM,1.14 µM,0.425 µM,0.225 µM,0.586 µM,0.556 µM,0.732 µM,0.36 µM,0.756 µM,0.448 µM,0.32 µM
